Reference: BindingDB's records for doi:10.1016/j.bmcl.2005.02.084 (Bristol-Myers Squibb Pharmaceutical Research Institute, 2005)

Experiment: Inhibitory concentration in CCR4-transfected murine pre-B L1.2 cells (chemotaxis assay)

Work on `CCN(CC)CCCC(C)Nc1nccc(NCc2ccc(Cl)cc2Cl)n1` (stereo unspecified) [N*4*-(2,4-Dichloro-benzyl)-N*2*-(4-diethylamino-1-methyl-butyl)-pyrimidine-2,4-diamine] yielded an IC50 of 5 µM.
